The values that follow come from ChEMBL document CHEMBL5528007, “Synthetic GPR40/FFAR1 agonists: An exhaustive survey on the most recent chemical classes and their structure-activity relationships” (Eur J Med Chem, 2024).

Assay [1] concerns the target GPR40-Galpha16 (Homo sapiens, UniProt O14842+P30679). Kind of assay: Agonist activity at human GPR40/Galpha-16 expressed in HEK293 cells by Fluo4-AM dye based intracellular calcium flux assay.
The target of assay [2] is T1, Free fatty acid receptor 1 (Homo sapiens, UniProt O14842). Kind of assay: Agonist activity at human recombinant GPR40 stably expressed in HEK293 cells at 0.1 uM incubated for 24 hrs by FLIPR assay relative to control. In kind it is functional, cell-based.
T1 sequence (O14842 whole entry): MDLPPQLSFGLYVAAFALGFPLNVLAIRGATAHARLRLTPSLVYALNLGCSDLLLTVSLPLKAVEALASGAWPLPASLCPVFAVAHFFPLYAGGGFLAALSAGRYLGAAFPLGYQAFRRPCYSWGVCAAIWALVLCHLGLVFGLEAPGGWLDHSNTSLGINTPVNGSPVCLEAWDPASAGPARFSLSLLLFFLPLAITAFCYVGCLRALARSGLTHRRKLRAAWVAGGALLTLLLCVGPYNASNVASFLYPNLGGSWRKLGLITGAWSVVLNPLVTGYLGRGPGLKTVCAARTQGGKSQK
The target of assay [3] is T1, Free fatty acid receptor 1. Briefly: Agonist activity at human GPR40 stably expressed in CHO cells assessed as increase in intracellular calcium concentration by FLIPR assay. In kind it is functional, cell-based. On the technique in general: Calcium assays in cells follow changes in intracellular calcium, usually with a dye or a luminescent sensor.
Assay [4] has as its target T1, Free fatty acid receptor 1. Briefly: Agonist activity at human FFA1 expressed in CHO cells by Fluo4-AM dye based intracellular calcium flux assay. In kind it is functional, cell-based.
The target of assay [5] is T1, Free fatty acid receptor 1. Kind of assay: Agonist activity at human recombinant GPR40 expressed in CHO cells by Fluo4-AM dye based intracellular calcium flux assay relative to control. In kind it is functional, cell-based.
Assay [6] deals with T1, Free fatty acid receptor 1. Briefly: Agonist activity at human FFA1 stably expressed in CHO cells at 300 nM by Fluo4-AM dye based intracellular calcium flux FLIPR assay relative to control. In kind it is functional, cell-based.
The target of assay [7] is T2, Peroxisome proliferator-activated receptor gamma (Homo sapiens) (UniProt P37231).
T2 sequence (whole entry): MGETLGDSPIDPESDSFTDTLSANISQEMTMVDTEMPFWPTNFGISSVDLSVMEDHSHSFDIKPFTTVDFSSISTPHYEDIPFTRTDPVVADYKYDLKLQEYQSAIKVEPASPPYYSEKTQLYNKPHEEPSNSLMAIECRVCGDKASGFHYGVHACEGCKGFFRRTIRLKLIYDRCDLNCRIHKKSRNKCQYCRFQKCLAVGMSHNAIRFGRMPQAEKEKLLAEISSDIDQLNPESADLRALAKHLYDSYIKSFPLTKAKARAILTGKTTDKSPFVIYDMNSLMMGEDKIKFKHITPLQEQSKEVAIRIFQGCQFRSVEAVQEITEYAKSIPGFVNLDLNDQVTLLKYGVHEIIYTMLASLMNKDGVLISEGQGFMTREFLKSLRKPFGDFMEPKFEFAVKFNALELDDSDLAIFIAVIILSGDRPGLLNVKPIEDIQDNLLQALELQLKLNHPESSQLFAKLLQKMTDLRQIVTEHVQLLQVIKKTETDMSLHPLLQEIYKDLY
Briefly: Agonist activity at PPARgamma (unknown origin) assessed as fold increase in calcium by Fluo4-AM dye based intracellular calcium flux assay. In kind it is cell-based. Particulars: filed as agonist.

Assay [8] deals with T1, Free fatty acid receptor 1. Kind of assay: Agonist activity at human GPR40 expressed in HEK293 cells by Fluo4-AM dye based intracellular calcium flux assay. The class given is functional, cell-based.
Assay [9] deals with T1, Free fatty acid receptor 1. Kind of assay: Agonist activity at human […] expressed in HEK293 cells incubated for 40 mins by Fluo4-AM dye based intracellular calcium flux assay. The class given is functional, cell-based.
Assay [10] addresses T1, Free fatty acid receptor 1. Briefly: Agonist activity at human recombinant FFA1 stably expressed in CHO cells assessed as increase in calcium flux by Fluo4-AM dye based FLIPR assay. In kind it is functional, cell-based.

Sequence of GPR40-Galpha16 (O14842 whole entry): as the sequence (O14842 whole entry) above
Sequence of GPR40-Galpha16 (P30679 whole entry): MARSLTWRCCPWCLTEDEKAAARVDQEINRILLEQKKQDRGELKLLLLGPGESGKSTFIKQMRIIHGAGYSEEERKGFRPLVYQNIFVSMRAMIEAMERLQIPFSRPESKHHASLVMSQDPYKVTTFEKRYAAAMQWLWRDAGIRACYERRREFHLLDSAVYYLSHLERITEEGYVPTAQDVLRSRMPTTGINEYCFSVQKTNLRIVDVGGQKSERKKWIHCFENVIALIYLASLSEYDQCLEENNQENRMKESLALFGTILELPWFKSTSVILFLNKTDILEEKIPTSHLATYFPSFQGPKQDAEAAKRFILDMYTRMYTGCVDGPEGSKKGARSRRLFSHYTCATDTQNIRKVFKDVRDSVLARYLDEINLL

Usually EC50 stands for the midpoint of the concentration-response curve. Regarding `O=C(O)CCc1ccc(NCc2cccc(Oc3ccccc3)c2)cc1` [GW9508], the EC50 in [1] was 48 nM. Turning to `Cc1cc(O[C@H]2CCOC2)cc(C)c1-c1cccc2c1CC[C@H]2Oc1ccc(OCC(=O)O)cc1`, the Activity in assay [2] (filed as agonist) was 47%.

Consider `Cc1cccc(C(=O)Nc2ccc(CC(=O)O)cc2)c1`, for which the 50% effective concentration (EC50) in assay [3] amounted to 13200 nM. With `[2H]C([2H])(Cc1ccc(OCc2cccc(-c3c(C)cccc3C)c2)cc1)C(=O)O`, in assay [4], the EC50 was 42.7 nM. In the case of `O=C(O)C[C@@H](c1ccc(O[C@@H]2CCc3c2ccc(C(F)(F)F)c3CN2CCCCC2)cc1)c1ccon1`, the Activity in assay [5] turned out to be 16.5%. Regarding `[2H]C([2H])(Cc1ccc(OCc2cccc(-c3c(C)cc(OCCCS(C)(=O)=O)cc3C)c2)cc1)C(=O)O`, the EC50 in assay [4] came out at 72.2 nM. Take `Cc1ccc(S(=O)(=O)Nc2cccc(COc3ccc4c(c3)OCC4CC(=O)O)c2)cc1` (configuration not stated): in assay [6], the Activity worked out at 23.7%.

For `Cc1ccc(O[C@H]2CCOC2)cc1-c1cc(COc2ccc(OCC(=O)O)cc2)cc2c1OCC2`, the Activity in assay [2] came to 1.8%. For the compound `O=C(O)CC1COc2cc(OCc3cccc(O/C=C/Oc4ccccc4)c3)ccc21` (configuration not stated), the Activity in [6] (filed as agonist) worked out at 52.7%.

As to `Cc1ccc(O[C@H]2CCOC2)cc1-c1cc(COc2ccc(OCC(=O)O)cc2)cc2c1CCC2`, the Activity in assay [2] (filed as agonist) stood at 133%. In the case of `O=C(O)COc1ccc(NC(=O)CSc2nc3ccccc3[nH]2)cc1`, in assay [7], the fold change (FC) is 2.

As for `O=C(O)CC1COc2cc(OCc3cccc(OCc4ccccc4)c3)ccc21` (configuration not stated), in assay [6], the Activity turned out to be 23.5%. Consider `CC(C)(CCCCCCCCCCC(C)(C)CC(=O)O)CC(=O)O`, for which the EC50 in [8] is 1220 nM.

On to `O=C(O)C[C@@H](c1ccc(O[C@@H]2CCc3c2ccc(C(F)(F)F)c3CN2CCCCCC2)cc1)c1ccon1`, for which the Activity in [5] (filed as agonist) amounted to 48.2%. Regarding `COc1ccc2[nH]c(SCC(=O)Nc3ccc(OCC(=O)O)cc3)nc2c1`, in assay [7], the fold change (FC) was 2. `O=C(O)CCc1ccc(OCc2ccc3ccccc3n2)cc1`: in assay [9], the EC50 is 100000 nM.

`Cc1ccc(O[C@H]2CCOC2)cc1-c1cccc2c1CC[C@H]2Oc1ccc(OCC(=O)O)cc1`: the Activity in assay [2] (filed as agonist) stood at 51.7%.

Take `O=C(O)C[C@@H](c1ccc(O[C@@H]2CCc3c2ccc(C(F)(F)F)c3CN2CCC(F)CC2)cc1)c1ccon1`: in assay [5] (filed as agonist), the Activity is 45.2%. Regarding `Cc1ccccc1-c1cccc(COc2ccc(OCC(=O)O)c(F)c2)c1`, the concentration giving a half-maximal response (EC50) in assay [10] came to 1390 nM. On to `[2H]C([2H])(Cc1ccc(OCc2cccc(-c3ccccc3C)c2)cc1)C(=O)O`, for which the concentration giving a half-maximal response (EC50) in assay [4] was determined as 19.1 nM.

As for `CC1CCN(Cc2c(C(F)(F)F)ccc3c2CC[C@H]3Oc2ccc([C@H](CC(=O)O)c3ccon3)cc2)CC1`, in assay [5] (filed as agonist), the Activity is 55.1%. As to `O=C(O)CC1COc2cc(OCc3cccc(NC(=O)c4coc5ccccc45)c3)ccc21` (configuration not stated), in assay [6] (filed as agonist), the Activity was found to be 50.4%.
